Measurements from BigSolDB 2.1.

COc1cc(/C=C/C(=O)CC(=O)/C=C/c2ccc(O)c(OC)c2)ccc1O
solubility (mole fraction)
Conditions	278.15 K	283.15 K	288.15 K	293.15 K	298.15 K	303.15 K	308.15 K	313.15 K	318.15 K	323.15 K
in isopropanol	0.00156	0.00177	0.002	0.00226	0.00254	0.00285	0.00319	0.00356	0.00398	0.00444
in m-xylene	0.00015	0.00018	0.00022	0.00026	0.00031	0.00036	0.00042	0.00049	0.00057	0.00066
in methanol	0.00029	0.00033	0.00038	0.00044	0.0005	0.00057	0.00066	0.00075	0.00087	0.001
in n-butanol	0.00049	0.00057	0.00066	0.00075	0.00086	0.00099	0.00114	0.00131	0.00151	0.00175
in n-heptane	5e-05	9e-05	0.00013	0.00017	0.00022	0.00027	0.00032	0.00038	0.00044	0.00052
in n-hexane	7e-05	0.00011	0.00015	0.00019	0.00024	0.00029	0.00035	0.00041	0.00048	0.00057
